# Patent US20210045385A1, “PYRIDAZINONE-SUBSTITUTED KETOXIMES AS HERBICIDES” (FMC Corporation, priority 2018, published 2021)
# What was measured:
# Type in all cases: in vivo
# [1] = test system: Italian ryegrass (Lolium multiflorum); experiment: Test A preemergence, visual plant response rating; conditions: for Ryegrass, Italian plant response rating: 125 g ai/ha, preemergence, 0 to 100 scale, 0 no effect, 100 complete control; for Ryegrass, Italian plant response rating (0 to 100 scale): 500 g ai/ha Preemergence, approx. 10 days
# Summary of the method: (§1)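 Greenhouse evaluation, approx. 10 days post-spray. Soil: loam + sand. Postemergence stage: 1–2 leaves, height 2–10 cm. Vehicle: non-phytotoxic solvent blend with surfactant. Score: visual injury on a 0 (no effect) to 100 (complete control) scale.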
# [2] = test system: barnyardgrass (Echinochloa crus-galli); experiment: Test A preemergence, visual plant response rating; conditions: for Barnyardgrass plant response rating: 125 g ai/ha, preemergence, 0 to 100 scale, 0 no effect, 100 complete control; for Barnyardgrass plant response rating (0 to 100 scale): 500 g ai/ha Preemergence, approx. 10 days
# Summary of the method: as §1
# [3] = test system: foxtail, giant (giant foxtail, Setaria faberii); experiment: Test A preemergence, visual plant response rating; conditions: for Foxtail, Giant plant response rating: 125 g ai/ha, preemergence, 0 to 100 scale, 0 no effect, 100 complete control; for Foxtail, Giant plant response rating (0 to 100 scale): 500 g ai/ha Preemergence, approx. 10 days
# Summary of the method: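 Compared with untreated controls, treated plants received a visual injury score on a 0–100 scale around 10 days after application. The compound, in a non-phytotoxic solvent with surfactant, was given as a preemergence soil spray or postemergence at the one- to two-leaf stage.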
# kochia (Kochia scoparia) [4] = experiment: Test A preemergence, visual plant response rating; conditions: for Kochia plant response rating: 125 g ai/ha, preemergence, 0 to 100 scale, 0 no effect, 100 complete control; for Kochia plant response rating (0 to 100 scale): 500 g ai/ha Preemergence, approx. 10 days
# Summary of the method: as §1
# [5] = test system: pigweed (Amaranthus retroflexus); experiment: Test A preemergence, visual plant response rating; conditions: for Pigweed plant response rating: 125 g ai/ha, preemergence, 0 to 100 scale, 0 no effect, 100 complete control; for Pigweed plant response rating (0 to 100 scale): 500 g ai/ha Preemergence, approx. 10 days
# Summary of the method: as §1
# [6] = test system: ragweed (common ragweed, Ambrosia elatior); experiment: Test A preemergence, visual plant response rating; conditions: for Ragweed plant response rating: 125 g ai/ha, preemergence, 0 to 100 scale, 0 no effect, 100 complete control; for Ragweed plant response rating (0 to 100 scale): 500 g ai/ha Preemergence, approx. 10 days
# Summary of the method: as §1
# [7] = test system: Italian ryegrass (Lolium multiflorum); experiment: Test A postemergence, visual plant response rating; conditions: for Ryegrass, Italian plant response rating (0 to 100 scale): 500 g ai/ha, postemergence, 0 is no effect, 100 is complete control; for Ryegrass, Italian plant response rating: Postemergence, 125 g ai/ha, 0 to 100 scale (0 no effect, 100 complete control)
# Summary of the method: as §1
# [8] = test system: barnyardgrass (Echinochloa crus-galli); experiment: Test A postemergence, visual plant response rating; conditions: for Barnyardgrass plant response rating (0 to 100 scale): 500 g ai/ha, postemergence, 0 is no effect, 100 is complete control; for Barnyardgrass plant response rating: Postemergence, 125 g ai/ha, 0 to 100 scale (0 no effect, 100 complete control)
# Summary of the method: as §1
# [9] = test system: blackgrass (Alopecurus myosuroides); experiment: Test A postemergence, visual plant response rating; conditions: for Blackgrass plant response rating (0 to 100 scale): 500 g ai/ha, postemergence, 0 is no effect, 100 is complete control; for Blackgrass plant response rating: Postemergence, 125 g ai/ha, 0 to 100 scale (0 no effect, 100 complete control)
# Summary of the method: as §1
# corn (Zea mays) = experiment: Test A postemergence, visual plant response rating; conditions: for Corn plant response rating (0 to 100 scale): 500 g ai/ha, postemergence, 0 is no effect, 100 is complete control; for Corn plant response rating: Postemergence, 125 g ai/ha, 0 to 100 scale (0 no effect, 100 complete control)
# Summary of the method: as §1
# [10] = test system: foxtail, giant (giant foxtail, Setaria faberii); experiment: Test A postemergence, visual plant response rating; conditions: for Foxtail, Giant plant response rating (0 to 100 scale): 500 g ai/ha, postemergence, 0 is no effect, 100 is complete control; for Foxtail, Giant plant response rating: Postemergence, 125 g ai/ha, 0 to 100 scale (0 no effect, 100 complete control)
# Summary of the method: as §1
# [11] = test system: galium (catchweed bedstraw, Galium aparine); experiment: Test A postemergence, visual plant response rating; conditions: for Galium plant response rating (0 to 100 scale): 500 g ai/ha, postemergence, 0 is no effect, 100 is complete control; for Galium plant response rating: Postemergence, 125 g ai/ha, 0 to 100 scale (0 no effect, 100 complete control)
# Summary of the method: as §1
# kochia (Kochia scoparia) [12] = experiment: Test A postemergence, visual plant response rating; conditions: for Kochia plant response rating (0 to 100 scale): 500 g ai/ha, postemergence, 0 is no effect, 100 is complete control; for Kochia plant response rating: Postemergence, 125 g ai/ha, 0 to 100 scale (0 no effect, 100 complete control)
# Summary of the method: as §1
# [13] = test system: pigweed (Amaranthus retroflexus); experiment: Test A postemergence, visual plant response rating; conditions: for Pigweed plant response rating (0 to 100 scale): 500 g ai/ha, postemergence, 0 is no effect, 100 is complete control; for Pigweed plant response rating: Postemergence, 125 g ai/ha, 0 to 100 scale (0 no effect, 100 complete control)
# Summary of the method: as §1
# [14] = test system: ragweed (common ragweed, Ambrosia elatior); experiment: Test A postemergence, visual plant response rating; conditions: for Ragweed plant response rating (0 to 100 scale): 500 g ai/ha, postemergence, 0 is no effect, 100 is complete control; for Ragweed plant response rating: Postemergence, 125 g ai/ha, 0 to 100 scale (0 no effect, 100 complete control)
# Summary of the method: as §1
# [15] = test system: wheat (Triticum aestivum); experiment: Test A postemergence, visual plant response rating; conditions: for Wheat plant response rating (0 to 100 scale): 500 g ai/ha, postemergence, 0 is no effect, 100 is complete control; for Wheat plant response rating: Postemergence, 125 g ai/ha, 0 to 100 scale (0 no effect, 100 complete control)
# Summary of the method: as §1
# [16] = test system: barnyardgrass (Echinochloa crus-galli); experiment: Test B flooded paddy test, visual plant response rating; conditions: 250 g ai/ha, Flood, applied to paddy water, 2-leaf stage, evaluated after 13 to 15 days
# Summary of the method: (§2)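 Compounds added straight into paddy water of pots flooded to 3 cm, with 2-leaf-stage plants of the four species; water level held throughout.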
# [17] = test system: ducksalad (Heteranhera limosa); experiment: as above; conditions: 250 g ai/ha, Flood, applied to paddy water, 2-leaf stage, evaluated after 13 to 15 days
# Summary of the method: as §2
# rice (Oryza sativa) = experiment: as above; conditions: 250 g ai/ha, Flood, applied to paddy water, 2-leaf stage, evaluated after 13 to 15 days
# Summary of the method: as §2
# [18] = test system: sedge, umbrella (small-flower umbrella sedge, Cyperus difformis); experiment: as above; conditions: 250 g ai/ha, Flood, applied to paddy water, 2-leaf stage, evaluated after 13 to 15 days
# Summary of the method: as §2
smiles,measurement,setting,value
CON=C(c1cc(Cl)ccc1C)c1c(O)c(C)nn(C)c1=O [Compound 65],"Ryegrass, Italian plant response rating",[1],0
same,"Ryegrass, Italian plant response rating (0 to 100 scale)",[1],30
same,Barnyardgrass plant response rating,[2],20
same,Barnyardgrass plant response rating (0 to 100 scale),[2],50
same,"Foxtail, Giant plant response rating",[3],20
same,"Foxtail, Giant plant response rating (0 to 100 scale)",[3],40
same,Kochia plant response rating,kochia (Kochia scoparia) [4],0
same,Kochia plant response rating (0 to 100 scale),kochia (Kochia scoparia) [4],30
same,Pigweed plant response rating,[5],50
same,Pigweed plant response rating (0 to 100 scale),[5],100
same,Ragweed plant response rating,[6],20
same,Ragweed plant response rating (0 to 100 scale),[6],100
same,"Ryegrass, Italian plant response rating (0 to 100 scale)",[7],90
same,"Ryegrass, Italian plant response rating",[7],50
same,Barnyardgrass plant response rating (0 to 100 scale),[8],40
same,Barnyardgrass plant response rating,[8],30
same,Blackgrass plant response rating (0 to 100 scale),[9],30
same,Blackgrass plant response rating,[9],10
same,Corn plant response rating (0 to 100 scale),corn (Zea mays),0
same,Corn plant response rating,corn (Zea mays),0
same,"Foxtail, Giant plant response rating (0 to 100 scale)",[10],70
same,"Foxtail, Giant plant response rating",[10],30
same,Galium plant response rating (0 to 100 scale),[11],90
same,Galium plant response rating,[11],70
same,Kochia plant response rating (0 to 100 scale),kochia (Kochia scoparia) [12],80
same,Kochia plant response rating,kochia (Kochia scoparia) [12],70
same,Pigweed plant response rating (0 to 100 scale),[13],90
same,Pigweed plant response rating,[13],90
same,Ragweed plant response rating (0 to 100 scale),[14],80
same,Ragweed plant response rating,[14],60
same,Wheat plant response rating (0 to 100 scale),[15],20
same,Wheat plant response rating,[15],0
same,"Plant response rating, Barnyardgrass (0 to 100 scale, 0 is no effect, 100 is complete control)",[16],0
same,"Plant response rating, Ducksalad (0 to 100 scale, 0 is no effect, 100 is complete control)",[17],0
same,"Plant response rating, Rice (0 to 100 scale, 0 is no effect, 100 is complete control)",rice (Oryza sativa),0
same,"Plant response rating, Sedge, Umbrella (0 to 100 scale, 0 is no effect, 100 is complete control)",[18],0
CCO/N=C(/c1c(O)c(C)nn(C)c1=O)c1cccc2ccccc12 [Compound 78],"Ryegrass, Italian plant response rating",[1],30
same,"Ryegrass, Italian plant response rating (0 to 100 scale)",[1],50
same,Barnyardgrass plant response rating,[2],80
same,Barnyardgrass plant response rating (0 to 100 scale),[2],80
same,"Foxtail, Giant plant response rating",[3],80
same,"Foxtail, Giant plant response rating (0 to 100 scale)",[3],90
same,Kochia plant response rating,kochia (Kochia scoparia) [4],10
same,Kochia plant response rating (0 to 100 scale),kochia (Kochia scoparia) [4],30
same,Pigweed plant response rating,[5],20
same,Pigweed plant response rating (0 to 100 scale),[5],100
same,Ragweed plant response rating,[6],90
same,Ragweed plant response rating (0 to 100 scale),[6],90
same,"Ryegrass, Italian plant response rating (0 to 100 scale)",[7],40
same,"Ryegrass, Italian plant response rating",[7],30
same,Barnyardgrass plant response rating (0 to 100 scale),[8],80
same,Barnyardgrass plant response rating,[8],40
same,Blackgrass plant response rating (0 to 100 scale),[9],80
same,Blackgrass plant response rating,[9],70
same,Corn plant response rating (0 to 100 scale),corn (Zea mays),30
same,Corn plant response rating,corn (Zea mays),20
same,"Foxtail, Giant plant response rating (0 to 100 scale)",[10],80
same,"Foxtail, Giant plant response rating",[10],70
same,Galium plant response rating (0 to 100 scale),[11],100
same,Galium plant response rating,[11],90
same,Kochia plant response rating (0 to 100 scale),kochia (Kochia scoparia) [12],70
same,Kochia plant response rating,kochia (Kochia scoparia) [12],60
same,Pigweed plant response rating (0 to 100 scale),[13],90
same,Pigweed plant response rating,[13],80
same,Ragweed plant response rating (0 to 100 scale),[14],90
same,Ragweed plant response rating,[14],80
same,Wheat plant response rating (0 to 100 scale),[15],0
same,Wheat plant response rating,[15],0
same,"Plant response rating, Barnyardgrass (0 to 100 scale, 0 is no effect, 100 is complete control)",[16],0
same,"Plant response rating, Ducksalad (0 to 100 scale, 0 is no effect, 100 is complete control)",[17],0
same,"Plant response rating, Rice (0 to 100 scale, 0 is no effect, 100 is complete control)",rice (Oryza sativa),0
same,"Plant response rating, Sedge, Umbrella (0 to 100 scale, 0 is no effect, 100 is complete control)",[18],0
CON=C(c1c(O)c(C)nn(C)c1=O)c1cccc2sccc12 [Compound 58],"Ryegrass, Italian plant response rating",[1],70
same,"Ryegrass, Italian plant response rating (0 to 100 scale)",[1],100
same,Barnyardgrass plant response rating,[2],10
same,Barnyardgrass plant response rating (0 to 100 scale),[2],60
same,"Foxtail, Giant plant response rating",[3],60
same,"Foxtail, Giant plant response rating (0 to 100 scale)",[3],100
same,Kochia plant response rating,kochia (Kochia scoparia) [4],30
same,Kochia plant response rating (0 to 100 scale),kochia (Kochia scoparia) [4],60
same,Pigweed plant response rating,[5],10
same,Pigweed plant response rating (0 to 100 scale),[5],50
same,Ragweed plant response rating,[6],60
same,Ragweed plant response rating (0 to 100 scale),[6],80
same,"Ryegrass, Italian plant response rating (0 to 100 scale)",[7],90
same,"Ryegrass, Italian plant response rating",[7],80
same,Barnyardgrass plant response rating (0 to 100 scale),[8],50
same,Barnyardgrass plant response rating,[8],20
same,Blackgrass plant response rating (0 to 100 scale),[9],90
same,Blackgrass plant response rating,[9],80
same,Corn plant response rating (0 to 100 scale),corn (Zea mays),0
same,Corn plant response rating,corn (Zea mays),0
same,"Foxtail, Giant plant response rating (0 to 100 scale)",[10],80
same,"Foxtail, Giant plant response rating",[10],40
same,Galium plant response rating (0 to 100 scale),[11],90
same,Galium plant response rating,[11],80
same,Kochia plant response rating (0 to 100 scale),kochia (Kochia scoparia) [12],70
same,Kochia plant response rating,kochia (Kochia scoparia) [12],60
same,Pigweed plant response rating (0 to 100 scale),[13],90
same,Pigweed plant response rating,[13],70
same,Ragweed plant response rating (0 to 100 scale),[14],100
same,Ragweed plant response rating,[14],50
same,Wheat plant response rating (0 to 100 scale),[15],80
same,Wheat plant response rating,[15],40
same,"Plant response rating, Barnyardgrass (0 to 100 scale, 0 is no effect, 100 is complete control)",[16],0
same,"Plant response rating, Ducksalad (0 to 100 scale, 0 is no effect, 100 is complete control)",[17],0
same,"Plant response rating, Rice (0 to 100 scale, 0 is no effect, 100 is complete control)",rice (Oryza sativa),0
same,"Plant response rating, Sedge, Umbrella (0 to 100 scale, 0 is no effect, 100 is complete control)",[18],0
